# Patent US11027021B2, “Combinations of PBD-based antibody drug conjugates with Bcl-2 inhibitors” (Seagen Inc., priority 2016, dated 2021)
# Experiments:
# MOLM-13 cells = experiment: MOLM-13 subcutaneous xenograft survival experiment; assay type: in vivo; settings: ABT-199 alone 100 mg/kg daily by oral gavage for 14 days; MOLM-13 xenograft, SCID mice
# Procedure: (§1) Tumor growth was monitored throughout the course of the study with bilateral vernier caliper measurements, and mean tumor volumes were calculated using the equation (0.5×[length×width^2]). […] Mice with advanced tumor burden were sacrificed upon reaching tumor volumes of greater than 400 mm^3 or showing symptoms of hind limb paralysis, cranial swelling, and/or moribundity.
# RL cells = experiment: RL subcutaneous xenograft survival experiment; assay type: in vivo; settings: ABT-199 alone 100 mg/kg daily by oral gavage for 14 days, SCID mice
# Procedure: as §1
smiles,measurement,setting,value
"CC1(C)CCC(CN2CCN(c3ccc(C(=O)NS(=O)(=O)c4ccc(NCC5CCOCC5)c([N+](=O)[O-])c4)c(Oc4cnc5[nH]ccc5c4)c3)CC2)=C(c2ccc(Cl)cc2)C1 [ABT-199, 2-(1H-pyrrolo[2,3-b]pyridin-5-yloxy)-4-(4-((2-(4-chlorophenyl)-4,4-dimethylcyclohex-1-enyl)methyl)piperazin-1-yl)-N-(3-nitro-4-(((tetrahydro-2H-pyran-4-yl)methyl)amino)phenylsulfonyl)benzamide]",rate of survival by day 20,MOLM-13 cells,0%
same,rate of survival by day 30,RL cells,0%
